Assay results: US12091409B2, “Ether linked triazoles as NRF2 activators” (ASTEX THERAPEUTICS LIMITED, priority 2016, dated 2024)

These molecules were tested on NQO1 specific enzyme activity in BEAS-2B cells (marker for NRF2 activation) (assay: BEAS-2B NQO1 MTT Assay). Details: Homo sapiens, BEAS-2B, 48 h, NQO1 specific activity induction, 48 hours with compound.
Type: cell-based
Description: NAD(P)H:quinone oxidoreductase 1 (NQO1), also called DT diaphorase, is a homodimeric FAD-containing enzyme that catalyzes obligatory NAD(P)H-dependent two-electron reductions of quinones and protects cells against the toxic and neoplastic effects of free radicals and reactive oxygen species arising from one-electron reductions. The transcription of NQO1 is finely regulated by NRF2, and thus NQO1 activity is a good marker for NRF2 activation. On day one, frozen BEAS-2B cells (ATCC) were thawed in a water bath, counted, and re-suspended at a concentration of 250,000 cells/mL. Fifty microliters of cells were plated in 384 well black clear-bottomed plates. Plates were incubated at 37° C., 5% CO2 overnight. On day two, plates were centrifuged and 50 nL of compound or controls were added to the cells. Plates were then incubated at 37° C., 5% CO2 for 48 hours. On day four, medium was aspirated from the plate and crude cell lysates were made by adding 13 uL of 1× Cell Signaling Technologies lysis buffer with 1 Complete, Mini, EDTA-free Protease Inhibitor Tablet (Roche) for each 10 mL of lysis buffer. After lysis plates were incubated for 20 minutes at room temperature. Two microliters of lysate were removed for use in Cell Titer Glo assay (Promega) and MTT cocktail was prepared (Prochaska et. al. 1998) for measurement of NQO1 activity. Fifty microliters of MTT cocktail was added to each well, plate was centrifuged, and analyzed on an Envision plate reader (Perkin Elmer) using Absorbance 570 nm label for 30 minutes. Product formation was measured kinetically and the pEC50 of NQO1 specific activity induction was calculated by plotting the change in absorbance (Delta OD/min) versus the log of compound concentration followed by 3-parameter fitting.
pEC50 is the negative log of the EC50.
EC50s<1 nM (+++++), EC50s 1 nM-10 nM (++++), EC50s 10 nM-100 nM (+++), EC50s 100 nM-1 uM (++), EC50s 1 uM-10 uM (+); EC50s>10 uM (−), or were not determined (ND).
`CC[C@@H]1CN(Cc2cc([C@H](OCc3cn(CC)nn3)C(C)(C)C(=O)O)ccc2C)S(=O)(=O)c2ccccc2O1` [Example 6, (S)-3-(3-(((R)-4-ethyl-1,1-dioxido-3,4-dihydro-2H-benzo[b][1,4,5]oxathiazepin-2-yl)methyl)-4-methylphenyl)-3-((1-ethyl-1H-1,2,3-triazol-4-yl)methoxy)-2,2-dimethylpropanoic acid] gave an EC50 of 1 to 10 nM.
`CC[C@@H]1CN(Cc2cc(C(OCc3cn(Cc4ccccc4)nn3)C(C)(C)C(=O)O)ccc2C)S(=O)(=O)c2ccccc2O1` (stereo partly drawn) [Example 7, 3-((1-Benzyl-1H-1,2,3-triazol-4-yl)methoxy)-3-(3-(((R)-4-ethyl-1,1-dioxido-3,4-dihydro-2H-benzo[b][1,4,5]oxathiazepin-2-yl)methyl)-4-methylphenyl)-2,2-dimethylpropanoic acid] showed an EC50 of under 1 nM.
Work on `CCCn1cc(COC(c2ccc(C)c(CN3C[C@@H](C)Oc4ccccc4S3(=O)=O)c2)C(C)(C)C(=O)O)nn1` (stereo partly drawn) [Example 8, 2,2-Dimethyl-3-(4-methyl-3-(((R)-4-methyl-1,1-dioxido-3,4-dihydro-2H-benzo[b][1,4,5]oxathiazepin-2-yl)methyl)phenyl)-3-((1-propyl-1H-1,2,3-triazol-4-yl)methoxy)propanoic acid] yielded an EC50 of 1 to 10 nM.
For `CCCn1cc(COC(c2ccc(C)c(CN3CC(C)(C)Oc4ccccc4S3(=O)=O)c2)C(C)(C)C(=O)O)nn1` (stereo not drawn) [Example 9, 3-(3-((4,4-Dimethyl-1,1-dioxido-3,4-dihydo-2H-benzo[b][1,4]oxathiazepin-2-yl)methyl)-4-methylphenyl)-2,2-dimethyl-3-((1-propyl-1H-1,2,3-triazol-4-yl)methoxy)-propanoic acid], the EC50 was 1 to 10 nM.
In the case of `CC[C@@H]1CN(Cc2cc(C(OCc3cn(CC)nn3)C(C)(C)C(=O)O)ccc2C)S(=O)(=O)c2ccccc2O1` (stereo partly drawn) [Example 10, 3-(3-(((R)-4-ethyl-1,1-dioxido-3,4-dihydro-2H-benzo[b][1,4,5]oxathiazepin-2-yl)methyl)-4-methylphenyl)-3-((1-ethyl-1H-1,2,3-triazol-4-yl)methoxy)-2,2-dimethylpropanoic acid], the EC50 is reported as under 1 nM.
`CCn1cc(COC(c2ccc(C)c(CN3C[C@@H](C)Oc4ccccc4S3(=O)=O)c2)C(C)(C)C(=O)O)nn1` (stereo partly drawn) [Example 11, 3-((1-Ethyl-1H-1,2,3-triazol-4-yl)methoxy)-2,2-dimethyl-3-(4-methyl-3-(((R)-4-methyl-1,1-dioxido-3,4-dihydro-2H-benzo[b][1,4,5]oxathiazepin-2-yl)methyl)phenyl)propanoic acid] was tested, and the EC50 was 1 to 10 nM.
`CCn1cc(COC(c2ccc(C)c(CN3CC(C)(C)Oc4ccccc4S3(=O)=O)c2)C(C)(C)C(=O)O)nn1` (stereo not drawn) [Example 12, 3-(3-((4,4-dimethyl-1,1-dioxido-3,4-dihydro-2H-benzo[b][1,4,5]oxathiazepin-2-yl)methyl)-4-methylphenyl)-3-((1-ethyl-1H-1,2,3-triazol-4-yl)methoxy)-2,2-dimethylpropanoic acid] showed an EC50 of 1 to 10 nM.
In the case of `Cc1ccc(C(OCc2cn(C3CCCCC3)nn2)C(C)(C)C(=O)O)cc1CN1C[C@@H](C)Oc2ccccc2S1(=O)=O` (stereo partly drawn) [Example 17, 3-((1-Cyclohexyl-1H-1,2,3-triazol-4-yl)methoxy)-2,2-dimethyl-3-(4-methyl-3-(((R)-4-methyl-1,1-dioxido-3,4-dihydro-2H-benzo[b][1,4,5]oxathiazepin-2-yl)methyl)phenyl)propanoic acid], the EC50 is reported as 1 to 10 nM.
For `Cc1ccc(C(OCc2cn(CC3CCCN(C(=O)OC(C)(C)C)C3)nn2)C(C)(C)C(=O)O)cc1CN1C[C@@H](C)Oc2ccccc2S1(=O)=O` (stereo partly drawn) [Example 18, 3-((1-((1-(Tert-butoxycarbonyl)piperidin-3-yl)methyl)-1H-1,2,3-triazol-4-yl)methoxy)-2,2-dimethyl-3-(4-methyl-3-(((R)-4-methyl-1,1-dioxido-3,4-dihydro-2H-benzo[b][1,4,5]oxathiazepin-2-yl)methyl)phenyl)propanoic acid], the EC50 was 1 to 10 nM.
Molecule `Cc1ccc(C(OCc2cn(Cc3ccc(CN=[N+]=[N-])cc3)nn2)C(C)(C)C(=O)O)cc1CN1C[C@@H](C)Oc2ccccc2S1(=O)=O` (stereo partly drawn) [Example 19, 3-((1-(4-(Azidomethyl)benzyl)-1H-1,2,3-triazol-4-yl)methoxy)-2,2-dimethyl-3-(4-methyl-3-(((R)-4-methyl-1,1-dioxido-3,4-dihydro-2H-benzo[b][1,4,5]oxathiazepin-2-yl)methyl)phenyl)propanoic acid] has an EC50 of 1 to 10 nM.
For `Cc1ccc(C(OCc2cn(CC3CCN(C(=O)OC(C)(C)C)CC3)nn2)C(C)(C)C(=O)O)cc1CN1C[C@@H](C)Oc2ccccc2S1(=O)=O` (stereo partly drawn) [Example 20, 3-((1-((1-(Tert-butoxycarbonyl)piperidin-4-yl)methyl)-1H-1,2,3-triazol-4-yl)methoxy)-2,2-dimethyl-3-(4-methyl-3-(((R)-4-methyl-1,1-dioxido-3,4-dihydro-2H-benzo[b][1,4,5]oxathiazepin-2-yl)methyl)phenyl)propanoic acid], the EC50 was 1 to 10 nM.
Molecule `CC[C@@H]1CN(Cc2cc(C(OCc3cn(Cc4cccc(C(=O)O)c4)nn3)C(C)(C)C(=O)O)ccc2C)S(=O)(=O)c2ccccc2O1` (stereo partly drawn) [Example 21, 3-((4-((2-Carboxy-1-(3-(((R)-4-ethyl-1,1-dioxido-3,4-dihydro-2H-benzo[b][1,4,5]oxathiazepin-2-yl)methyl)-4-methylphenyl)-2-methylpropoxy)methyl)-1H-1,2,3-triazol-1-yl)methyl)benzoic acid] has an EC50 of 100 to 1000 nM.
In the case of `CC[C@@H]1CN(Cc2cc(C(OCc3cn(Cc4cccc(-c5ccc(C(=O)O)cc5)c4)nn3)C(C)(C)C(=O)O)ccc2C)S(=O)(=O)c2ccccc2O1` (stereo partly drawn) [Example 22, 3′-((4-((2-Carboxy-1-(3-(((R)-4-ethyl-1,1-dioxido-3,4-dihydro-2H-benzo[b][1,4,5]oxathiazepin-2-yl)methyl)-4-methylphenyl)-2-methylpropoxy)methyl)-1H-1,2,3-triazol-1-yl)methyl)-[1,1′-biphenyl]-4-carboxylic acid], the EC50 is reported as 1 to 10 nM.
`CC[C@@H]1CN(Cc2cc(C(OCc3cn(Cc4cccc(-c5cccc(C(=O)O)c5)c4)nn3)C(C)(C)C(=O)O)ccc2C)S(=O)(=O)c2ccccc2O1` (stereo partly drawn) [Example 23, 3′-((4-((2-Carboxy-1-(3-(((R)-4-ethyl-1,1-dioxido-3,4-dihydro-2H-benzo[b][1,4,5]oxathiazepin-2-yl)methyl)-4-methylphenyl)-2-methylpropoxy)methyl)-1H-1,2,3-triazol-1-yl)methyl)-[1,1′-biphenyl]-3-carboxylic acid] was tested, and the EC50 was 10 to 100 nM.
`CC[C@@H]1CN(Cc2cc(C(OCc3cn(Cc4cccc(-c5ccc(C(=O)O)c(F)c5)c4)nn3)C(C)(C)C(=O)O)ccc2C)S(=O)(=O)c2ccccc2O1` (stereo partly drawn) [Example 24, 3′-((4-((2-Carboxy-1-(3-(((R)-4-ethyl-1,1-dioxido-3,4-dihydro-2H-benzo[b][1,4,5]oxathiazepin-2-yl)methyl)-4-methylphenyl)-2-methylpropoxy)methyl)-1H-1,2,3-triazol-1-yl)methyl)-3-fluoro-[1,1′-biphenyl]-4-carboxylic acid] showed an EC50 of 10 to 100 nM.
Molecule `Cc1ccc(C(OCc2cn(Cc3cccc(-c4ccc(C(=O)O)cc4)c3)nn2)C(C)(C)C(=O)O)cc1CN1C[C@@H](C)Oc2ccccc2S1(=O)=O` (stereo partly drawn) [Example 25, 3′-((4-((2-Carboxy-2-methyl-1-(4-methyl-3-(((R)-4-methyl-1,1-dioxido-3,4-dihydro-2H-benzo[b][1,4,5]oxathiazepin-2-yl)methyl)phenyl)propoxy)methyl)-1H-1,2,3-triazol-1-yl)methyl)-[1,1′-biphenyl]-4-carboxylic acid] has an EC50 of 10 to 100 nM.
`Cc1ccc(C(OCc2cn(Cc3cccc(-c4cccc(C(=O)O)c4)c3)nn2)C(C)(C)C(=O)O)cc1CN1C[C@@H](C)Oc2ccccc2S1(=O)=O` (stereo partly drawn) [Example 26, 3′-((4-((2-Carboxy-2-methyl-1-(4-methyl-3-(((R)-4-methyl-1,1-dioxido-3,4-dihydro-2H-benzo[b][1,4,5]oxathiazepin-2-yl)methyl)phenyl)propoxy)methyl)-1H-1,2,3-triazol-1-yl)methyl)-[1,1′-biphenyl]-3-carboxylic acid] showed an EC50 of 10 to 100 nM.
With `CC[C@@H]1CN(Cc2cc(C(OCc3cn(Cc4cc(C)cc(Cn5cc(CO)nn5)c4)nn3)C(C)(C)C(=O)O)ccc2C)S(=O)(=O)c2ccccc2O1` (stereo partly drawn) [Example 27, 3-(3-(((R)-4-ethyl-1,1-dioxido-3,4-dihydro-2H-benzo[b][1,4,5]oxathiazepin-2-yl)methyl)-4-methylphenyl)-3-((1-(3-((4-(hydroxymethyl)-1H-1,2,3-triazol-1-yl)methyl)-5-methylbenzyl)-1H-1,2,3-triazol-4-yl)methoxy)-2,2-dimethylpropanoic acid] the EC50 was 1 to 10 nM.
